Experimental findings from PMC10232370 (2023) are described below.

By EC50 is commonly meant the concentration needed to bring the measured effect to its halfway point. What is called Kd is the concentration at which binding is half-saturated. Read a low Kd as higher affinity.

Experiment [1] relates to JUN IRES A bulge model with 2AP (5'UAU/3'A_A) (RNA, mRNA element, 2-aminopurine in place of the bulged A) GCAGUAUAGGAAACUAACUGC
The experiment can be described thus: 2-aminopurine fluorescence titration.

For experiment [2], the system named is JUN IRES fully paired control (A bulge to AU pair), Cy5 (RNA, mRNA element) GCAGUAUAGGAAACUAUACUGC
As to the kind of experiment: Cy5 fluorescence titration. Conditions: no saturable binding.

Experiment [3] concerns Cy5-labelled JUN IRES model (RNA, mRNA element) GCAGUAUAGGAAACUAACUGC
As to the kind of experiment: Cy5 fluorescence titration.

The subject of experiment [4] is MYC IRES fully paired control RNA (RNA, mRNA element) GGGGGCUUCGCCUCUGGCGAAGCCCUC
As to the kind of experiment: Cy5 fluorescence titration.

Experiment [5] relates to Cy5-labelled MYC IRES 5'UUCG/3'ACCC 2x2 internal loop model (RNA, mRNA element) GGGGGCUUCGCCUCUGGCCCAGCCCUC
The experiment can be described thus: Cy5 fluorescence titration.

Experiment [6] has as its system pre-miR-155 +U49 mutant (A bulge to AU pair) (RNA, miRNA) GGCUGUUAAUGCUAAUCGUGAUAGGGGUUUUUGCCUCCAACUGACUCCUAUCAUAUUAGCAUUAACAG
The experiment can be described thus: competition with 2AP-labelled RNA. The settings on record: RIBOTAC 5 µM, 2AP-labelled A bulge RNA 1 µM; mutant does not compete.

Experiment [7] deals with pre-miR-155 (wild type) (RNA, miRNA) GGCUGUUAAUGCUAAUCGUGAUAGGGGUUUUUGCCUCCAACUGACUCCUACAUAUUAGCAUUAACAG
The experiment can be described thus: competition with 2AP-labelled RNA. Conditions: RIBOTAC 5 µM, 2AP-labelled A bulge RNA 1 µM; unlabelled pre-miR-155 as competitor.

Experiment [8] concerns Cy5-5'GAU/3'CUA mimic (A bulge to AU pair) (RNA, hairpin) GUAAUGAUUACGAAAGUAAUCAUUGC
The experiment can be described thus: microscale thermophoresis. Conditions: no saturable binding.

Experiment [9] relates to Cy5-5'GAU/3'C_A mimic (minimized pre-miR-155 A bulge) (RNA, mismatch bulge abasic) GUAAUGAUUACGAAAGUAACAUUGC
As to the kind of experiment: microscale thermophoresis. In general terms: MST reads how a fluorescent partner responds to local heating, with and without ligand.

Experiment [10] relates to Cy5-2DCS model fully base paired (RNA, hairpin) GGGUUUAAUUAGAUACGAAAGUAUCUAAUUGGAUCC
The experiment can be described thus: microscale thermophoresis. The settings on record: no saturable binding.

The test system of experiment [11] is pre-miR-155 A bulge with 2-aminopurine (2AP) (RNA, mismatch bulge abasic, 2-aminopurine in place of the bulged A) GUAAUGAUUACGAAAGUAACAUUGC
As to the kind of experiment: 2-aminopurine fluorescence titration.

Experiment [12] deals with Cy5-2DCS model with two A bulges (RNA, mismatch bulge abasic) GGGUUUAAUAGAUACGAAAGUACUAAUUGGAUCC
The experiment can be described thus: microscale thermophoresis.

The test system of experiment [13] is JUN IRES 2AP control RNA (bulge converted to base pair) (RNA, mRNA element, 2-aminopurine (position not given)) GCAGUAUAGGAAACUAUACUGC
As to the kind of experiment: 2-aminopurine fluorescence titration.

The structures appear in SMILES notation. Like-named read-outs stand apart in the source and are kept apart here.

Compound `CCOC(=O)C1=C(Nc2ccccc2)S/C(=C\c2ccc(O)c(OCCOCCOCCOCCNC(=O)CCNc3nc(Nc4ccc(C5=NCCN5)cc4)nc(Nc4ccc(C5=NCCN5)cc4)n3)c2)C1=O` registered an EC50 in experiment [1] of 3.5 ± 0.9 µM. For the same compound, the binding entry in [2] was “no”. For the same compound, the Kd in [3] is recorded as 0.4 ± 0.1 µM.
With `CCOC(=O)C1=C(Nc2ccccc2)S/C(=C\c2ccc(OCCOCCOCCOCCNC(=O)c3cc(NC(=O)Nc4ccc(C5=NCCN5)cc4)cc(NC(=O)Nc4ccc(C5=NCCN5)cc4)c3)c(O)c2)C1=O`, the binding result in experiment [4] (no saturable binding) is on record as “no”. The compound further registered a Kd in experiment [5] of 1.1 ± 0.1 µM.
In the case of `CCOC(=O)C1=C(Nc2ccccc2)S/C(=C\c2ccc(OCCOCCOCCOCCNC(=O)CCc3c(C)n(-c4c(C(C)C)cccc4C(C)C)c[n+]3-c3c(C(C)C)cccc3C(C)C)c(O)c2)C1=O`, in [6], the binding entry is listed as “no”. In experiment [7], this compound displayed a Kd of 2.2 ± 0.9 µM.
With `CCOC(=O)C1=C(Nc2ccccc2)S/C(=C\c2ccc(O)c(OCCOCCOCCOCCNC(=O)c3cc(NC(=O)Nc4ccc(C5=NCCN5)cc4)cc(NC(=O)Nc4ccc(C5=NCCN5)cc4)c3)c2)C1=O`, in experiment [4] (no saturable binding), the binding entry is “no”. The compound further yielded a Kd in experiment [5] of 0.9 ± 0.2 µM.
For the compound `CCCCCCCCCCCc1c(CCCCCCCCCCC)[n+](-c2c(C(C)C)cccc2C(C)C)cn1-c1c(C(C)C)cccc1C(C)C`, the binding entry in experiment [8] and in experiment [10] was “no” throughout. Moreover, the Kd in experiment [9] is reported as 0.8 ± 0.1 µM; in [12] it was 1.2 ± 0.1 µM. In [11] (apparent, error printed as 1.2), the “Kd,app” value is 3.9 ± 1 µM.
On to `O=C(Nc1ccc(C2=NCCN2)cc1)Nc1cc(NC(=O)Nc2ccc(C3=NCCN3)cc2)cc(C(=O)O)c1`, for which, in experiment [4], the binding entry was “no”. In addition, the Kd in experiment [5] is given as 2.3 ± 1 µM.
As to `CCOC(=O)C1=C(Nc2ccccc2)S/C(=C\c2ccc(OCCOCCOCCOCCNC(=O)CCNc3nc(Nc4ccc(C5=NCCN5)cc4)nc(Nc4ccc(C5=NCCN5)cc4)n3)c(O)c2)C1=O`, in [1], the EC50 was determined as 1.8 ± 0.5 µM. Besides, in experiment [2], the binding result is given as “no”. Moreover, the Kd in [3] is 0.5 ± 0.2 µM.
Consider `CNc1nc(Nc2ccc(C3=NCCN3)cc2)nc(Nc2ccc(C3=NCCN3)cc2)n1`, for which the EC50 in experiment [1] is 1.1 ± 0.2 µM; in experiment [13], greater than 50 µM. Further, in experiment [3], the Kd is reported as 3.2 ± 2 µM.
Turning to `CCCNC(=O)CCc1c(C)n(-c2c(C(C)C)cccc2C(C)C)c[n+]1-c1c(C(C)C)cccc1C(C)C`, in experiment [9] (similar affinity to C1), the Kd was 1.1 ± 0.1 µM. Further, the binding result in [11] (similar affinity to C1) was “yes”.
